Data from patent US12264185B2, “Stabilized BCL9 peptides for treatment of aberrant Wnt signaling” (WntRx Pharmaceuticals Inc., priority 2015, dated 2025).
Where “and” joins values, the source holds several entries; their conditions need not be identical. Identical values can stand only once. Like-named read-outs stand apart in the source and are kept apart here. Values belong to the compound of their own block, whether it stands above or below them. Bridge positions count the residues as written; N and C are the ends. Square brackets hold non-standard residues; d marks the D form. Peptide text beside a SMILES is read from it. 2Nal = N[C@@H](Cc1ccc2ccccc2c1)C(=O)O; R5 = C=CCCC[C@@](C)(N)C(=O)O; S5 = C=CCCC[C@](C)(N)C(=O)O; βAla = NCCC(=O)O

Columns and labels:
[1] = FIG. 10B; details: for MRTINF | hr: in vivo
Protocol: Each data point represents N=2. Mice were administered 5 mg/kg, 10 mg/kg, or 15 mg/kg intravenously, 5 mg/kg intramuscularly, 10 mg/kg intraperitoneally, or 10 mg/kg subcutaneously.

[2] = FIG. 9B
Description: Table printed on a drawing sheet, FIG. 9B
First reader's note: Plasma PK parameters derived from the concentration-time curves plotted in FIG. 9A on the same sheet.

[3] = tested on: Colo320DM cells; experiment: cells
Protocol: Colo320DM cells were selected for this assay as the proliferation of this particular cell line is dependent on BCL9 and β-catenin. ICG001, a known Wnt/β-catenin small molecule inhibitor, was used as a positive control. The cell viability at each treatment condition was analyzed using CellTiterGlo luminescent cell viability assay (Promega) according to the manufacturer's protocols.
Following the procedure described in Example 2, the ability of WX-035 to inhibit cell growth was tested in a cell viability assay using Colo320DM cells.

[4] = tested on: Wnt/β-catenin signaling; experiment: GeneBLAzer beta-lactamase Wnt transcription reporter assay, LEF/TCF-bla HCT-116 cells; assay type: cell-based; details: for IC50: LEF/TCF-bla HCT-116 cells
Description: ICG001 was used as a comparison. The GeneBLAzer uses CellSensor™ LEF/TCF-bla HCT-116 cells that contain a beta-lactamase (BLA) reporter gene under the control of the β-catenin/LEF/TCF response element stably integrated into HCT-116 cells, as shown in FIG. 5A. These cells constitutively express beta-lactamase and can be used to detect agonists and antagonists of the Wnt/β-catenin signaling pathway. The GeneBLAzer assay provides a ratiometric reporter response involving a two-color (blue/green) readout of stimulated and unstimulated cells.
LEF/TCF-bla HCT-116 cells were plated in assay medium (Invitrogen) on clear-bottom plates and incubated overnight at 37° C. […] Cells were next incubated with the Wnt agonist, mWnt3a (provided in the GeneBLAzer kit) for 5 hours at 37° C. Substrate mixture (containing LiveBLAzer™ B/G substrate that employs CCF4-AM, a FRET substrate for beta-lactamase) was added to the wells, and the plate was incubated for 2.5 hours at room temperature in the dark. Black-walled, clear-bottom, 384-well plates (Corning Costar) were used with scanning done with a Spectramax M2. Plates were scanned first (Scan 1 in the blue channel) with excitation filter 409/20 nm and emission filter 460/40 nm. Plates were then scanned (Scan 2 in the green channel) with excitation filer 409/20 nm and emission filter 530/30 nm.

[5] = tested on: HCT116 cells; assay type: cell-based; details: HCT116 cells, CellTiterGlo
Protocol: The additional polypeptides were tested in a CellTiterGlo luminescent cell viability assay (Promega). ICG001 was used as a positive control in this assay.

[6] = tested on: CT26.WT cells; assay type: cell-based
Protocol: One of the stabilized polypeptides generated in Example 10 was tested in a cell viability assay and compared against WX-035. WX-037 was selected for this comparison study. The cell viability assay was performed with CT26.WT cells (ATCC), following the procedures described in Example 2. Briefly, 4000 cells per well of each plate were seeded with 50 μL opti-MEM medium. Each polypeptide, WX-035 or WX-037, was diluted with 2% FBS containing opti-MEM medium using 1 μL of 200× concentrated polypeptide in 99 μL of the medium. Each stock solution was diluted for testing a wide range of concentrations. 50 μL of 2× concentrated polypeptide was added to each well of the plate. Three days after the polypeptide addition, the viability of cells was measured using CellTiterGlo assay, according to the manufacturer's protocol.

[7] = tested on: CT26 cells; experiment: cells; details: Mus musculus, CT26, read-out: IC50, CT26 cell growth
Protocol: CT26 cells were grown in F-bottom plates over 5 days. […] CellTiterGlo (Promega) cell viability assay. […] Doxorubicin is a known inhibitor of cell growth and was included as a control.

[8] = read-out: IC50, Wnt transcription

Compound: CC[C@H](C)[C@@H]1NC(=O)[C@@](C)(NC(=O)[C@H](CCCNC(=N)N)NC(=O)[C@H](CC(C)C)NC(=O)[C@@H](NC(=O)[C@H](CCC(N)=O)NC(=O)[C@H](CC(C)C)NC(C)=O)[C@@H](C)O)CCCC=CCCC[C@@](C)(C(=O)N[C@@H](CC(C)C)C(=O)N[C@@H](Cc2ccc3ccccc3c2)C(N)=O)NC(=O)[C@H](CCCNC(=N)N)NC(=O)[C@H](CCC(N)=O)NC1=O (single isomer, unassigned) [WX-024 5mg/kg, IV]
- AUCINF | [1]: 136 µg·h/mL
- AUClast | [1]: 136 µg·h/mL
- CL | L/hr/kg [1]: 0.0368 L/h/kg
- CL | mL/min/kg [1]: 0.613 mL/min/kg
- VSS | [1]: 0.0693 L/kg
- MRT ([1]; female, Balb/c, mouse, blood, iv): 1.88 h
- half-life ([1]; female, Balb/c, mouse, blood, iv, read-out: TERMINAL t1/2 | hr (converted)): 1.99 h

Compound: CC[C@H](C)[C@@H]1NC(=O)[C@@](C)(NC(=O)[C@H](CCCNC(=N)N)NC(=O)[C@H](CC(C)C)NC(=O)[C@@H](NC(=O)[C@H](CCC(N)=O)NC(=O)[C@H](CC(C)C)NC(C)=O)[C@@H](C)O)CCCC=CCCC[C@@](C)(C(=O)N[C@@H](CC(C)C)C(=O)N[C@@H](Cc2ccc3ccccc3c2)C(N)=O)NC(=O)[C@H](CCCNC(=N)N)NC(=O)[C@H](CCC(N)=O)NC1=O (single isomer, unassigned) [WX-024 10mg/kg, IV]
- AUCINF | [1]: 233 µg·h/mL
- AUClast | [1]: 233 µg·h/mL
- CL | L/hr/kg [1]: 0.0428 L/h/kg
- CL | mL/min/kg [1]: 0.713 mL/min/kg
- VSS | [1]: 0.0788 L/kg
- MRTINF | hr ([1]; mouse, iv): 1.84 h

Compound: CC[C@H](C)[C@@H]1NC(=O)[C@@](C)(NC(=O)[C@H](CCCNC(=N)N)NC(=O)[C@H](CC(C)C)NC(=O)[C@@H](NC(=O)[C@H](CCC(N)=O)NC(=O)[C@H](CC(C)C)NC(C)=O)[C@@H](C)O)CCCC=CCCC[C@@](C)(C(=O)N[C@@H](CC(C)C)C(=O)N[C@@H](Cc2ccc3ccccc3c2)C(N)=O)NC(=O)[C@H](CCCNC(=N)N)NC(=O)[C@H](CCC(N)=O)NC1=O (single isomer, unassigned) [WX-024 15mg/kg, IV]
- AUCINF | [1]: 260 µg·h/mL
- AUClast | [1]: 260 µg·h/mL
- CL | L/hr/kg [1]: 0.0576 L/h/kg
- CL | mL/min/kg [1]: 0.96 mL/min/kg
- VSS | [1]: 0.0946 L/kg
- MRTINF | hr ([1]; mouse, iv): 1.64 h

Compound: CC[C@H](C)[C@@H]1NC(=O)[C@@](C)(NC(=O)[C@H](CCCNC(=N)N)NC(=O)[C@H](CC(C)C)NC(=O)[C@@H](NC(=O)[C@H](CCC(N)=O)NC(=O)[C@H](CC(C)C)NC(C)=O)[C@@H](C)O)CCCC=CCCC[C@@](C)(C(=O)N[C@@H](CC(C)C)C(=O)N[C@@H](Cc2ccc3ccccc3c2)C(N)=O)NC(=O)[C@H](CCCNC(=N)N)NC(=O)[C@H](CCC(N)=O)NC1=O (single isomer, unassigned) [WX-024, LQTLRXaa1IQRXaa2L]
- T1/2 | hr [2]: 2.44 h and 2.59 h and 2.51 h

Compound: O=c1[nH]cc(F)c(=O)[nH]1 [5-FU, 5-fluorouracil, reference compound]
- IC50 ([3]; Homo sapiens, COLO 320DM, read-out: IC50, cell viability): 12100 nM

Compound: COc1cccc2c1C(=O)c1c(O)c3c(c(O)c1C2=O)C[C@@](O)(C(=O)CO)C[C@@H]3O[C@H]1C[C@H](N)[C@H](O)[C@H](C)O1 [doxorubicin]
- IC50 [7]: 7520 nM

Compound: C#Cc1cccc(Nc2ncnc3cc(OCCOC)c(OCCOC)cc23)c1 [erlotinib]
- IC50 [7]: > 2000 nM

The next lines start with results.

- IC50 [4, 8]: 1060 nM
- IC50 ([5]; read-out: IC50, cell viability): 2170 nM
Compound: O=C1[C@H](Cc2ccc(O)cc2)N2C(=O)CCN(C(=O)NCc3ccccc3)[C@H]2CN1Cc1cccc2ccccc12 [ICG001, reference compound]
- effect on cell viability / cell growth ([3]; Colo320DM cells): capable of inducing cell death in a dose dependent manner

- IC50 ([4]; Homo sapiens, read-out: IC50, Wnt/β-catenin transcription): > 10000 nM
Compound: Cc1cc(-c2ncc(CC(=O)Nc3ccc(-c4cnccn4)cn3)cc2C)ccn1 [LGK-974, reference compound]

- IC50 [4, 8]: 1580 nM
- IC50 [3]: 12400 nM
Compound: CC[C@H](C)[C@@H]1NC(=O)[C@@](C)(NC(=O)[C@H](CCCNC(=N)N)NC(=O)[C@H](CC(C)C)NC(C)=O)CCCC=CCCC[C@@](C)(C(=O)N[C@@H](CC(C)C)C(N)=O)NC(=O)[C@H](CCCNC(=N)N)NC(=O)[C@H](CCC(N)=O)NC1=O [WX-020, LRXaa1IQRXaa2L] (Ac-LR[S5]IQR[S5]L-NH2; staple 3-7)
- inhibition of Wnt transcription among domain mapping polypeptides ([4]; HCT116 cells): most effective polypeptide in inhibiting the Wnt transcription

- IC50 [6]: > 32000 nM
Compound: CC(=O)N[C@]1(C)CCCC=CCCC[C@@](C)(C(=O)N[C@@H](CC(=O)O)C(=O)N[C@@H](CCCNC(=N)N)C(=O)N[C@@]2(C)CCCC=CCCC[C@@](C)(C(=O)N[C@@H](CC(=O)O)C(=O)N[C@@H](Cc3c[nH]cn3)C(=O)NCCC(=O)NCCC(N)=O)NC(=O)[C@H](CCCNC(=N)N)NC(=O)[C@H](CCC(N)=O)NC(=O)[C@H](CC(=O)O)NC2=O)NC(=O)[C@H](CCC(N)=O)NC(=O)[C@H](CC(=O)O)NC1=O [WX-037, Xaa1DQXaa2DRXaa3DQRXaa4DH] (Ac-[R5]DQ[S5]DR[S5]DQR[S5]DH[βAla][βAla]-NH2; staple 1-4, 7-11)

- IC50 [4, 8]: 764 nM
Compound: stapled, Ac N-terminus, C-terminus 2-Nal-β-Ala-β-Ala-NH2 (Ac-LR[S5]IQR[S5]L[2Nal][βAla][βAla]-NH2; staple 3-7; SMILES CC[C@H](C)[C@@H]1NC(=O)[C@@](C)(NC(=O)[C@H](CCCNC(=N)N)NC(=O)[C@H](CC(C)C)NC(C)=O)CCCC=CCCC[C@@](C)(C(=O)N[C@@H](CC(C)C)C(=O)N[C@@H](Cc2ccc3ccccc3c2)C(=O)NCCC(=O)NCCC(N)=O)NC(=O)[C@H](CCCNC(=N)N)NC(=O)[C@H](CCC(N)=O)NC1=O) [WX-021, LRXaa1IQRXaa2L]
- inhibition of cell growth [5]: particularly effective
